pIC50: −log10 of the molar value. In brackets after ≈: the same amount, converted by molar mass.
Assays:
[1] = Inhibition of Mycobacterium tuberculosis H37Rv cytochrome bd oxidase with ATP synthase overexpression inverted membrane vesicles; format: cell membranes, Membrane vesicle
[2] = system: Mycobacterium tuberculosis; assay: Antimycobacterial activity against clinical isolate multi drug resistant Mycobacterium tuberculosis H37Rv assessed as inhibition of bacterial growth; format: functional, organism-based
[3] = system: Mycobacterium tuberculosis; assay: Antimycobacterial activity against Mycobacterium tuberculosis Rv1305 harbouring atpE gene; format: functional

**Q.** With `c1ccc(CCNc2ncnc3ccccc23)cc1` as the compound, how does the pIC50 [1] read?
**A.** 4.57

**Q.** With `CC(C)(C)c1ccc(CCNc2ncnc3ccsc23)cc1` as the compound, how does the pIC50 [2] read?
**A.** 4.72

**Q.** With `NC(=O)NC(=O)c1nc(-c2cc3ccccc3o2)c(N)nc1N` as the compound, how does the MIC [3] read?
**A.** 5 µM (≈ 1.56 µg/mL)

**Q.** Which MIC [2] does the source give for `CCc1nc2ccc(Cl)cn2c1C(=O)NCc1ccc(N2CCC(c3ccc(OC(F)(F)F)cc3)CC2)cc1` [TELACEBEC] here?
**A.** ≤ 1 µM

From ChEMBL document CHEMBL5344478, “Cytochrome bd oxidase: an emerging anti-tubercular drug target” (RSC Med Chem, 2024)
